According to patent US12673946B2, “Pyrimidin-4(3H)-one derivatives as TRPV4 antagonists” (RaQualia Pharma Inc., priority 2020, dated 2026):

Biological target: T1, human TRPV4 (Homo sapiens, UniProt Q9HBA0)
T1 construct: host or cells: tetracycline-inducible Flp-In T-REx 293 cells
Test: Hypotonicity-induced Ca2+ influx (Fluo-4, FDSS)
Format: cell-based
Summary of the method: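 Flp-In T-REx 293 cells with tetracycline-induced human TRPV4, loaded with Fluo-4 for 60 min at 25 °C. Compound added 5 min before hypotonic mannitol/CaCl2 solution. Ca2+ signal recorded for 4.5 min on FDSS.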

[1] = Flp-In T-REx 293 cells expressing human TRPV4, examples listed under heading 'Human IC50<50 nM'
[2] = Flp-In T-REx 293 cells stably expressing human TRPV4, compounds listed by potency bin (<10 nM Tables 96-1/96-2, <3 nM Table 97)

T1 sequence (Q9HBA0 whole entry): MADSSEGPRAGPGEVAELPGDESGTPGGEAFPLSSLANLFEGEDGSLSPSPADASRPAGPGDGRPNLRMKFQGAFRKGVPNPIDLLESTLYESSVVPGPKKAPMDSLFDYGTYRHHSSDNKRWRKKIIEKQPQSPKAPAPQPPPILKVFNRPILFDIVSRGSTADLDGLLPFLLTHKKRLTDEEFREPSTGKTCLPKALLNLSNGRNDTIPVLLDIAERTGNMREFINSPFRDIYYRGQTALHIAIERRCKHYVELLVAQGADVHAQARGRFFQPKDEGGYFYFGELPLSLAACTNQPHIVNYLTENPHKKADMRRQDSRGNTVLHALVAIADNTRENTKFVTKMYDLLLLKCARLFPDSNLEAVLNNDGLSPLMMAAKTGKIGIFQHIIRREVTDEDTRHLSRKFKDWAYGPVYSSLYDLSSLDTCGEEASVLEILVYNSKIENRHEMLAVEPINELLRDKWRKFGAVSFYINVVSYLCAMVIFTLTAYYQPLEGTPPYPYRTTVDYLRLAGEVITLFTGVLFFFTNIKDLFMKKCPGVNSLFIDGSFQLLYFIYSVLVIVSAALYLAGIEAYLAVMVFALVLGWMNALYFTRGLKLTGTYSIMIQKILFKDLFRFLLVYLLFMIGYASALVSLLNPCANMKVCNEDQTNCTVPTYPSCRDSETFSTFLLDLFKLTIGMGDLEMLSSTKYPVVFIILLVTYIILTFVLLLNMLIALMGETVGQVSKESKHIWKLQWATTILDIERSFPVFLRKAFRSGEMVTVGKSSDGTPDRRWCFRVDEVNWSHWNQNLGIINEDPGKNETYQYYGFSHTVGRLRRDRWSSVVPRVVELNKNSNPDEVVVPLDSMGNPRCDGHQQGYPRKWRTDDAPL

IC50 [1] | IC50 [2] | Structure (SMILES)
< 50 nM | < 3 nM | CC(C)c1csc(C2(c3nc4c(c(=O)[nH]3)CN(C(=O)[C@H](O)c3cccc(-c5ccnc(C(F)(F)F)c5)c3)CCC4)CC2)c1 [54-6]
< 50 nM | < 10 nM | O=C(C(O)c1cccc(-c2cnc3ccccc3c2)c1)N1CCCc2nc(C3(c4ccccc4)CC3)[nH]c(=O)c2C1 (stereo not shown) [49-1]
< 50 nM |  | O=C([C@H](O)c1cccc(F)c1F)N1CCc2nc(C3(c4ccccc4)CC3)[nH]c(=O)c2C1 [2-34, (R)-(−)-6-(2-(2,3-difluorophenyl)-2-hydroxyacetyl)-2-(1-phenylcyclopropyl)-5,6,7,8-tetrahydropyrido[4,3-d]pyrimidin-4(3H)-one]
< 50 nM | < 3 nM | O=C([C@H](O)c1cccc(-c2cccc(C(F)(F)F)n2)c1)N1CCCc2nc(C3(c4ccccc4)CC3)[nH]c(=O)c2C1 [49-22]
< 50 nM | < 3 nM | O=C([C@H](O)c1cccc(Cl)c1)N1CCCc2nc(C3(c4cccc(-c5coc6ccccc56)c4)CC3)[nH]c(=O)c2C1 [40-19]
< 50 nM | < 3 nM | CC(C)c1csc(C2(c3nc4c(c(=O)[nH]3)CN(C(=O)[C@H](O)c3cccc(-c5cccc(C(C)(C)C)c5)c3)CCC4)CC2)c1 [54-1]
< 50 nM | < 10 nM | CC(C)c1cncc(C2(c3nc4c(c(=O)[nH]3)CN(C(=O)[C@H](O)c3cccc(-c5ccc(C(F)(F)F)cc5)c3)CC4)CC2)c1 [47-2]
< 50 nM | < 3 nM | N#Cc1cc(Cl)cc(-c2cccc([C@@H](O)C(=O)N3CCCc4nc(C5(c6ccccc6)CC5)[nH]c(=O)c4C3)c2)c1 [49-44]
< 50 nM | < 10 nM | CC(C)(C)c1cccc(C(O)C(=O)N2CCCc3nc(C4(c5cncc(-c6ccccc6)c5)CC4)[nH]c(=O)c3C2)c1 (stereo not shown) [19-5]
< 50 nM | < 3 nM | O=C([C@H](O)c1cccc(C(F)(F)F)c1)N1CCCc2nc(C3(c4cccc(-c5ccc(N6CCC(OCc7ccccc7)CC6)nc5)c4)CC3)[nH]c(=O)c2C1 [42-88]
< 50 nM | < 10 nM | O=C([C@H](O)c1cccc(C(F)(F)F)c1)N1CCc2nc(C3(c4cncc(C5CCC(F)(F)CC5)c4)CC3)[nH]c(=O)c2C1 [28-4]
< 50 nM | < 10 nM | O=C(C(O)c1cccc(OCc2ccccc2)c1)N1CCc2nc(C3(c4cccc(Cl)c4)CC3)[nH]c(=O)c2C1 (stereo not shown) [14-106]
< 50 nM |  | Cc1cc(C)cc(-c2cccc([C@@H](O)C(=O)N3CCc4nc(C5(c6ccccc6)CC5)[nH]c(=O)c4C3)c2)c1 [44-113]
< 50 nM | < 10 nM | O=C([C@H](O)c1cccc(-c2ccc(Cl)c(OC(F)(F)F)c2)c1)N1CCCc2nc(C3(c4ccccc4)CC3)[nH]c(=O)c2C1 [49-41]
< 50 nM | < 10 nM | CC(C)c1cccc(C2(c3nc4c(c(=O)[nH]3)CN(C(=O)C(O)c3cccc(Cl)c3F)CC4)CC2)c1 (stereo not shown) [14-110]
< 50 nM |  | O=C(Cc1cccc(-c2ccc(Cl)cc2)c1)N1CCc2nc(C3(c4cccc(Cl)c4)CC3)[nH]c(=O)c2C1 [14-119]
< 50 nM | < 3 nM | O=C([C@H](O)c1cccc(C(F)(F)F)c1)N1CCc2nc(C3(c4cccc(-c5ccccc5)c4)CC3)[nH]c(=O)c2C1 [37-1]
< 50 nM | < 3 nM | CC(C)c1cccc(-c2cccc([C@@H](O)C(=O)N3CCCc4nc(C5(c6cccc(Cl)c6)CC5)[nH]c(=O)c4C3)c2)c1 [50-9]
< 50 nM | < 3 nM | O=C([C@H](O)c1cccc(Cl)c1)N1CCCc2nc(C3(c4cccc(C5CCC(F)(F)CC5)c4)CC3)[nH]c(=O)c2C1 [29-4]

IC50 [1] | IC50 [2] | Structure (SMILES)
< 50 nM | < 10 nM | O=C(C(O)c1cncc(-c2cccc(Cl)c2)c1)N1CCc2nc(C3(c4ccccc4)CC3)[nH]c(=O)c2C1 (stereo not shown) [48-5]
< 50 nM | < 10 nM | O=C([C@H](O)c1cccc(Cl)c1)N1CCc2nc(C3(c4cccc(C5CCCC5)c4)CC3)[nH]c(=O)c2C1 [24-1]
< 50 nM | < 10 nM | O=C([C@H](O)c1cccc(C(F)(F)F)c1)N1CCCc2nc(C3(c4ccccc4)CC3)[nH]c(=O)c2C1 [17-37]
< 50 nM | < 10 nM | O=C([C@H](O)c1cccc(-c2csc3ccccc23)c1)N1CCCc2nc(C3(c4ccccc4)CC3)[nH]c(=O)c2C1 [49-24]
< 50 nM | < 10 nM | O=C([C@H](O)c1cccc(-c2coc3ccccc23)c1)N1CCCc2nc(C3(c4cccc(C5CCCCC5)c4)CC3)[nH]c(=O)c2C1 [52-7]
< 50 nM |  | O=C([C@H](O)c1cccc(-c2ccc3c(c2)CCO3)c1)N1CCc2nc(C3(c4ccccc4)CC3)[nH]c(=O)c2C1 [44-116]
< 50 nM | < 3 nM | O=C([C@H](O)c1cccc(-c2cc3ccccc3o2)c1)N1CCc2nc(C3(c4ccccc4)CC3)[nH]c(=O)c2C1 [44-84]
< 50 nM | < 10 nM | O=C(C(O)c1cccc(-c2cccc(OC(F)(F)F)c2)c1F)N1CCc2nc(C3(c4ccccc4)CC3)[nH]c(=O)c2C1 (stereo not shown) [44-2]
< 50 nM |  | O=C(Cc1cccc(Oc2ccccc2)c1)N1CCCc2nc(C3(c4cccc(Cl)c4)CC3)[nH]c(=O)c2C1 [17-140]
< 50 nM | < 10 nM | CC(C)c1cncc(C2(c3nc4c(c(=O)[nH]3)CN(C(=O)[C@H](O)c3cccc(-c5ccc(C(C)(C)C)cc5)c3)CC4)CC2)c1 [47-1]
< 50 nM | < 10 nM | O=C(Cc1cccc(C2CC2)c1)N1CCCc2nc(C3(c4cccc(Cl)c4)CC3)[nH]c(=O)c2C1 [17-116]
< 50 nM |  | CC(C)c1cccc(-c2cccc([C@@H](O)C(=O)N3CCCc4c(nc(C5(c6ccccc6)CC5)[nH]c4=O)C3)c2)c1 [49-57]
< 50 nM | < 10 nM | CC(C)c1cccc(-c2cccc([C@@H](O)C(=O)N3CCc4nc(C5(c6ccccc6)CC5)[nH]c(=O)c4C3)c2)c1 [44-115]
< 50 nM |  | O=C([C@H](O)c1cccc(Cl)c1)N1CCc2nc(C3(c4cc(F)cc(F)c4)CC3)[nH]c(=O)c2C1 [3-58]
< 50 nM | < 10 nM | O=C([C@H](O)c1cccc(C(F)(F)F)c1)N1CCCc2nc(C3(c4cccc(-c5ccc6ncsc6c5)c4)CC3)[nH]c(=O)c2C1 [17-94]
< 50 nM | < 3 nM | O=C(N1CCCc2nc(C3(c4cccc(F)c4)CC3)[nH]c(=O)c2C1)C(F)(F)c1cccc(C(F)(F)F)c1 [20-3]
< 50 nM | < 10 nM | O=C(C(O)c1cccc(-c2ccc(Cl)cc2)c1)N1CCc2nc(C3(c4cccc(Cl)c4)CC3)[nH]c(=O)c2C1 (stereo not shown) [14-9]
< 50 nM |  | O=C(C(O)c1cccc(-c2ccc(OC(F)(F)F)cc2)c1)N1CCc2nc(C3(c4ccccc4)CC3)[nH]c(=O)c2C1 (stereo not shown) [44-24]
< 50 nM | < 10 nM | O=C([C@H](O)c1cccc(-c2cc(Cl)cc(C(F)(F)F)c2)c1)N1CCc2nc(C3(c4cccc(Cl)c4)CC3)[nH]c(=O)c2C1 [45-10]

IC50 [1] | IC50 [2] | Structure (SMILES)
< 50 nM | < 10 nM | O=C(Cc1cccc(-c2ccc(OC(F)(F)F)cc2)c1)N1CCCc2nc(C3(c4ccccc4)CC3)[nH]c(=O)c2C1 [17-134]
< 50 nM | < 10 nM | CC(C)(C)c1ccc(-c2cccc([C@@H](O)C(=O)N3CCCc4nc(C5(c6cccc(Cl)c6)CC5)[nH]c(=O)c4C3)c2)cc1 [50-22]
< 50 nM |  | O=C([C@H](O)c1cccc(F)c1F)N1CCc2nc(C3(c4cccc(Cl)c4)CC3)[nH]c(=O)c2C1 [3-48]
< 50 nM | < 10 nM | O=C(C(O)c1cccc(OCc2ccccc2)c1)N1CCCc2nc(C3(c4cccc(Cl)c4)CC3)[nH]c(=O)c2C1 (stereo not shown) [17-13]
< 50 nM | < 3 nM | O=C(C(O)c1cccc(Oc2cccc(C(F)(F)F)c2)c1)N1CCCc2nc(C3(c4ccccc4)CC3)[nH]c(=O)c2C1 (stereo not shown) [17-75]
< 50 nM | < 10 nM | CC(C)c1cccc(C2(c3nc4c(c(=O)[nH]3)CN(C(=O)[C@H](O)c3cccc(C(F)(F)F)c3)CC4)CC2)c1 [27-1]
< 50 nM | < 10 nM | O=C(C(O)c1cccc(C2CC2)c1)N1CCCc2nc(C3(c4cccc(Cl)c4)CC3)[nH]c(=O)c2C1 (stereo not shown) [17-24]
< 50 nM |  | O=C(C(O)c1cccc(-c2ccc(Cl)cc2)c1)N1CCc2nc(C3(c4ccccc4)CC3)[nH]c(=O)c2C1 (stereo not shown) [44-36]
< 50 nM | < 10 nM | O=C([C@H](O)c1cccc(-c2cccc(OC(F)(F)F)c2)c1)N1CCCc2nc(C3(c4cc(-c5ccccc5)cs4)CC3)[nH]c(=O)c2C1 [18-26]
< 50 nM |  | O=C([C@H](O)c1cccc(-c2ccc3c(c2)OCCCO3)c1)N1CCc2nc(C3(c4ccccc4)CC3)[nH]c(=O)c2C1 [44-106]
< 50 nM |  | O=C(C(O)c1cncc(-c2ccnc(C(F)(F)F)c2)c1)N1CCc2nc(C3(c4ccccc4)CC3)[nH]c(=O)c2C1 (stereo not shown) [48-7]
< 50 nM |  | O=C(C(O)c1cccc(-c2cccc(F)c2F)c1)N1CCc2nc(C3(c4ccccc4)CC3)[nH]c(=O)c2C1 (stereo not shown) [44-44]
< 50 nM | < 10 nM | O=C([C@H](O)c1cccc(-c2cccc(Cl)c2Cl)c1)N1CCCc2nc(C3(c4ccccc4)CC3)[nH]c(=O)c2C1 [49-42]
< 50 nM | < 10 nM | Cn1ncc2cc(-c3cccc(C4(c5nc6c(c(=O)[nH]5)CN(C(=O)[C@H](O)c5cccc(C(F)(F)F)c5)CCC6)CC4)c3)ccc21 [42-20]
< 50 nM |  | O=C([C@H](O)c1cccc(C(F)(F)F)c1)N1CCc2nc(C3(c4ccccc4)CC3)[nH]c(=O)c2C1 [3-71]
< 50 nM |  | O=C(C(O)c1ccccc1C(F)(F)F)N1CCCc2nc(C3(c4cccc(Cl)c4)CC3)[nH]c(=O)c2C1 (stereo not shown) [17-43]
< 50 nM |  | O=C(C(O)c1cccc(C2CC2)c1)N1CCCc2nc(C3(c4ccccc4)CC3)[nH]c(=O)c2C1 (stereo not shown) [17-58]
< 50 nM |  | Cc1ccc(-c2cccc([C@@H](O)C(=O)N3CCc4nc(C5(c6ccccc6)CC5)[nH]c(=O)c4C3)c2)cc1C [44-114]
< 50 nM | < 10 nM | O=C(C(O)c1cccc(-c2cc(Cl)cc(Cl)c2)c1)N1CCc2nc(C3(c4ccccc4)CC3)[nH]c(=O)c2C1 (stereo not shown) [44-10]
